Reference: patent publication US11779531B2, “Anti-inflammatory peptides, and uses thereof” (NURITAS LIMITED, priority 2015, dated 2023)

System: TNF-α secretion in THP1 cells
Test: TNF-α secretion by LPS-stimulated THP-1 differentiated cells after synthetic peptide treatment (Biolegend ELISA)
Assay type: cell-based, human
Conditions: THP-1 cells, synthetic peptide 100, 10 or 1 ng/ml for 24 h, then 10 ng/ml LPS 5 h; vs untreated control; concentration behind the value not stated
Method: FIGS. 1 to 18: The effect of eighteen synthetic peptides of the invention on TNF-secretion in THP1 cells. All experiments were prepared in duplicate on three plates (6 wells/conditions). Significance was calculated using Students t-test (*p<0.05 compared to control, **p<0.01 compared to control, *** p<0.001 compared to control). The figures correspond with the following SEQ ID Nos: FIG. 1 is SEQ ID NO: 339, FIG. 2 is SEQ ID NO: 352, FIG. 3 is SEQ ID NO: 341, FIG. 4 is SEQ ID NO: 351, FIG. 5 is SEQ ID NO: 144, FIG. 6 is SEQ ID NO: 93, FIG. 7 is SEQ ID NO: 320, FIG. 8 is SEQ ID NO: 92, FIG. 9 is SEQ ID NO: 75, FIG. 10 is SEQ ID NO: 76, FIG. 11 is SEQ ID NO: 349, FIG. 12 is SEQ ID NO: 350, FIG. 13 is SEQ ID NO: 105, FIG. 14 is SEQ ID NO: 177, FIG. 15 is SEQ ID NO: 345, FIG. 16 is SEQ ID NO: 353, FIG. 17 is SEQ ID NO: 344, FIG. 18 is SEQ ID NO: 346.
FIGS. 26 to 28. The effect of three synthetic peptides of the invention on TNF-secretion in THP1 cells. All experiments were prepared in duplicate on three plates (6 wells/conditions). Significance was calculated using Students t-test (*p<0.05 compared to control, **p<0.01 compared to control, ***p<0.001 compared to control). The figures correspond with the following SEQ ID Nos: FIG. 26 is SEQ ID NO: 85, FIG. 27 is SEQ ID NO: 91, FIG. 28 is SEQ ID NO: 420.
TNF-α is secreted by macrophages in response to stimulation by endotoxins such as lipopolysaccharides (LPS). TNF-α is thought to be involved in systemic inflammation and dysregulation of TNF-α production is thought to be involved in many diseases. The Biolegend assay is a sandwich ELISA kit that is designed for the accurate quantitation of human TNF-α from cell culture supernatant, serum or plasma.
THP-1 monocytes were seeded in a 96 well plate at 10,000 cells per well in RPMI containing 10% fetal calf serum (FCS), 1% Pen/strep, 1% L-glutamine, 100 nM PMA and allowed to differentiated for 72 h prior to experimentation.
Following differentiation the cells were incubated with 100 ng/ml, 10 ng/ml or 1 ng/ml synthetic peptide for 24 h respectively.
Following treatment the cells were stimulated with 10 ng/ml LPS for 5 h and the quantity of TNF-α in the supernatant determined using the Biolegend assay ELISA kit.
Results were calculated as a percentage of the untreated control. An increase in optical density reading indicates greater quantity of TNF-a release into cell culture supernatant.
All experiments were prepared in duplicate on three plates (6 wells/conditions). Significance was calculated using Students t-test (*p<0.05 compared to control, **p<0.01 compared to control, ***p<0.001 compared to control).

Row | Substance | TNF-α DECREASE
1 | 75 (LSSGDVFVIPAGHPVAVK) [compound 75] | 11%
2 | 76 (EDDEEEEQGEEEINK) [compound 76] | 9%
3 | 85 (SKPHTIFLPQHTDADYILVVLSGK) [compound 85] | 80%
4 | 91 (PGQLQSFLLSGNQNQQNYLSGFSK) [compound 91] | 80%
5 | 92 (FFELTPEKNQQLQDLDLFVNSVDLK) [compound 92] | 13%
6 | 93 (QLEELSK) [compound 93] | 14%
7 | 105 (PSYEKQEDEEEKQK) [compound 105] | 9%
8 | 144 (SIFRALPND) [compound 144] | 16%
9 | 320 (RGPQQYAEWQINE) [compound 320] | 13%
10 | 339 (QSFLLSGNQNQQ) [compound 339] | 26%
11 | 341 (RGPQQYA) [compound 341] | 21%
12 | 344 (GYYGEQQQQPGMTR) [compound 344] | 20%
13 | 345 (IDGYDTPVEGR) [compound 345] | 23%
14 | 346 (NGVLRPGQL) [compound 346] | 18%
15 | 349 (TVFDGVLRPGQL) [compound 349] | 6%
16 | 351 (HGPVEMPYTLLYPSSK) [compound 351] | 18%
17 | 352 (LDALEPDNR) [compound 352] | 23%
18 | 420 (RLQSQNDQRGEIIHVK) [compound 420] | 80%
